Test results as given in patent US9096591B2, “Tetracyclic compounds” (Medivation Technologies, Inc., priority 2007, dated 2015).
Read-outs that look alike come from different tables or passages of the source.

How the values were obtained:
[1] = biological target: T1, human recombinant histamine H2 receptor (Homo sapiens, UniProt P25021); test: Histamine H2 radioligand binding ([125I]Aminopotentidine); details: for inhibition at 0.1 µM: 0.1 μM compound; for inhibition at 0.3 µM: 0.3 μM compound
T1 construct: expressed in transfected cells; host or cells: CHO-K1 cells
T1 sequence (P25021 whole entry): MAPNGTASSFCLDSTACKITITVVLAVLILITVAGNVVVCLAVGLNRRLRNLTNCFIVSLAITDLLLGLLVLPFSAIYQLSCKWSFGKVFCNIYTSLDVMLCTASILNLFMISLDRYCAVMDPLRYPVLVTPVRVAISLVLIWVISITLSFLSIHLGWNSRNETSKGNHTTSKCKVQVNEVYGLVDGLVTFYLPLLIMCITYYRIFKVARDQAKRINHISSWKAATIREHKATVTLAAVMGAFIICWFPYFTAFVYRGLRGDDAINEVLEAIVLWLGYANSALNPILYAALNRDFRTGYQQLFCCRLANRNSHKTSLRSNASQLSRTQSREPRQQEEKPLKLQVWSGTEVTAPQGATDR
In short: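 This radioligand binding assay measured displacement of [125I]Aminopotentidine from recombinant human histamine H2 receptors. Compounds were dissolved in 1% DMSO vehicle. Specific binding was calculated by subtracting non-specific binding, defined using 3 μM Tiotidine, and activity was reported as percentage inhibition of that specific binding.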

[2] = biological target: T2, human recombinant serotonin (5-Hydroxytryptamine) 5-HT2C receptor (Homo sapiens, UniProt P28335); test: Serotonin 5-HT2C radioligand binding ([3H]Mesulergine); parameters: Inhibition of ligand binding, Ser. 5-HT2C: concentration or dose not given beside the values; details: percent inhibition of specific binding
T2 construct: expressed in transfected cells; host or cells: CHO-K1 cells
T2 sequence (P28335 33-458): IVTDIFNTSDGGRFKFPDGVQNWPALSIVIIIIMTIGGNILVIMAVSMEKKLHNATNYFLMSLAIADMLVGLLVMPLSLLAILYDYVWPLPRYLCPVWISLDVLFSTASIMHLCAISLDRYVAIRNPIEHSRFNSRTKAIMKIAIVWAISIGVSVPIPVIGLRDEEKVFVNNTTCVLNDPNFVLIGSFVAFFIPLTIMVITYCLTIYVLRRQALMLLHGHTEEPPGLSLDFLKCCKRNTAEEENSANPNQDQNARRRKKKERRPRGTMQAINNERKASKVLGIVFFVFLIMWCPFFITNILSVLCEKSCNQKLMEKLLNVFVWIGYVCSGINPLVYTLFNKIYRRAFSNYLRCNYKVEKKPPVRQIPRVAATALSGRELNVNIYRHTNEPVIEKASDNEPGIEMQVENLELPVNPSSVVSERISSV
Protocol: Compounds of the invention were incubated with 1 nM [^3H]Mesulergine for 60 minutes at 25° C. Non-specific binding was estimated in the presence of 1 μM Mianserin. Receptor proteins were filtered and washed, the filters were then counted to determine [^3H]Mesulergine specifically bound. […] Biochemical assay results are presented as the percent inhibition of specific binding in Table 6.

[3] = biological target: T3, human recombinant adrenergic α2A receptor (Homo sapiens, UniProt P08913); test: Adrenergic α2A radioligand binding ([3H]MK-912); parameters: Inhibition of ligand binding, Adren. alpha2A: concentration or dose not given beside the values; details: percent inhibition of specific binding
T3 construct: expressed in transfected cells; host or cells: insect Sf9 cells
T3 sequence (P08913 1-465): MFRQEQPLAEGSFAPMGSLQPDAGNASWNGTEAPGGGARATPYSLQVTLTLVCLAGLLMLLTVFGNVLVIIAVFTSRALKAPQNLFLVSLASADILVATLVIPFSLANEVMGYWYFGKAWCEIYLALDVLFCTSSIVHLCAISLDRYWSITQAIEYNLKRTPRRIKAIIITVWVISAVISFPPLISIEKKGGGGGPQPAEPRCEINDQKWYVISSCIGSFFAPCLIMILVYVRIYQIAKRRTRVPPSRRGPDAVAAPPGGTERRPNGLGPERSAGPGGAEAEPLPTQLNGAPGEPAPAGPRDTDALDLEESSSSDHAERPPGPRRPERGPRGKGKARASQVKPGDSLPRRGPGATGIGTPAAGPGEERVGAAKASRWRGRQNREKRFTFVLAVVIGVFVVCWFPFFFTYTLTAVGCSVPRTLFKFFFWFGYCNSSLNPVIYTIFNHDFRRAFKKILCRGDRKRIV
Protocol: To evaluate in radioligand binding assays the activity of compounds of the invention, human recombinant adrenergic α2A receptor expressed in insect Sf9 cells (Uhlen S et al. J Pharmacol Exp Ther. 271:1558, 1994) in a modified Tris-HCl buffer (50 mM Tris-HCl, pH 7.4, 12.5 mM MgCl2, 2 mM EDTA) was used. Compounds of invention were incubated with 1 nM [^3H]MK-912 for 60 minutes at 25° C. MK912 is (2S-trans)-1,3,4,5′,6,6′,7,12b-octahydro-1′,3′-dimethyl-spiro[2H-benzofuro[2,3-a]quinolizine-2,4′(1′H)-pyrimidin]-2′(3′H)-one hydrochloride Non-specific binding was estimated in the presence of 10 μM WB-4101 (2-(2,6-Dimethoxyphenoxyethyl)aminomethyl-1,4-benzodioxane hydrochloride). Receptor proteins were filtered and washed, the filters were then counted to determine [^3H]MK-912 specifically bound. […] Biochemical assay results are presented as the percent inhibition of specific binding in Table 6.

[4] = biological target: T4, human recombinant dopamine D2L receptor (Homo sapiens, UniProt P14416); test: Dopamine D2L radioligand binding ([3H]Spiperone); details: percent inhibition of specific binding
T4 construct: expressed in transfected cells; host or cells: CHO cells
T4 sequence (P14416 whole entry): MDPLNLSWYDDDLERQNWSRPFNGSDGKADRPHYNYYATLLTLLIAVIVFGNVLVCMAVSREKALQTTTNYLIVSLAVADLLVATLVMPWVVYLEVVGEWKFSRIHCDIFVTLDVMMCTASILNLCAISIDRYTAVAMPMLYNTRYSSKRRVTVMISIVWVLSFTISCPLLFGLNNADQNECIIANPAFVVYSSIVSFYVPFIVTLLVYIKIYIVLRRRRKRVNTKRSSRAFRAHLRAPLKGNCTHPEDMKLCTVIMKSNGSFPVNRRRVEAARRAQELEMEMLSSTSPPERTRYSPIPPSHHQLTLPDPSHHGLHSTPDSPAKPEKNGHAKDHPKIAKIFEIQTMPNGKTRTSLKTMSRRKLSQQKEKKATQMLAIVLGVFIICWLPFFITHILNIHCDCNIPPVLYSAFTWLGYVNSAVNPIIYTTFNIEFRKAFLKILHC
Protocol: Non-specific binding was estimated in the presence of 10 μM Haloperidol. Receptor proteins were filtered and washed, the filters were then counted to determine [^3H]Spiperone specifically bound. […] Biochemical assay results are presented as the percent inhibition of specific binding in Table 6.

[5] = biological target: T5, human recombinant serotonin (5-Hydroxytryptamine) 5-HT2A receptor (Homo sapiens, UniProt P28223); test: Serotonin 5-HT2A radioligand binding ([3H]Ketanserin); parameters: Inhibition of ligand binding, Ser. 5-HT2A: concentration or dose not given beside the values; details: for Inhibition of ligand binding, Ser. 5-HT2A: percent inhibition of specific binding
T5 construct: expressed in transfected cells; host or cells: CHO-K1 cells
T5 sequence (P28223 whole entry): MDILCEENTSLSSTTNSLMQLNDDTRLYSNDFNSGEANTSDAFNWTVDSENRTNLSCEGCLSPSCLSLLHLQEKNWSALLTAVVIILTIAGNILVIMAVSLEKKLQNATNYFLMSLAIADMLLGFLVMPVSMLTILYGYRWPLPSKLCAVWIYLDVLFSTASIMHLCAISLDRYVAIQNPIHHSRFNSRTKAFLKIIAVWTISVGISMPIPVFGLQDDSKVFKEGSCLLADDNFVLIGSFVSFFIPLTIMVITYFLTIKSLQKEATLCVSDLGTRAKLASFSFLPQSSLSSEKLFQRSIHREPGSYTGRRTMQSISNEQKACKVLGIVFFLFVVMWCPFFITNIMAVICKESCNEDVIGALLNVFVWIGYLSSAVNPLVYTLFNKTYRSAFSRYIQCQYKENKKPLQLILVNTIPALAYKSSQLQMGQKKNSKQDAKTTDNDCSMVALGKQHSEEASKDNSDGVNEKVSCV
Protocol: Compounds of the invention were incubated with 0.5 nM [^3H]Ketanserin for 60 minutes at 25° C. Non-specific binding was estimated in the presence of 1 μM Mianserin. Receptor proteins were filtered and washed, the filters were then counted to determine [^3H]Ketanserin specifically bound. […] Biochemical assay results are presented as the percent inhibition of specific binding in Table 6.

[6] = biological target: T6, human recombinant serotonin (5-Hydroxytryptamine) 5-HT6 receptor (Homo sapiens, UniProt P50406); test: Serotonin 5-HT6 radioligand binding ([3H]LSD); parameters: Inhibition of ligand binding, Ser. 5-HT6: concentration or dose not given beside the values; details: percent inhibition of specific binding
T6 construct: expressed in transfected cells; host or cells: human HeLa cells
T6 sequence (P50406 whole entry): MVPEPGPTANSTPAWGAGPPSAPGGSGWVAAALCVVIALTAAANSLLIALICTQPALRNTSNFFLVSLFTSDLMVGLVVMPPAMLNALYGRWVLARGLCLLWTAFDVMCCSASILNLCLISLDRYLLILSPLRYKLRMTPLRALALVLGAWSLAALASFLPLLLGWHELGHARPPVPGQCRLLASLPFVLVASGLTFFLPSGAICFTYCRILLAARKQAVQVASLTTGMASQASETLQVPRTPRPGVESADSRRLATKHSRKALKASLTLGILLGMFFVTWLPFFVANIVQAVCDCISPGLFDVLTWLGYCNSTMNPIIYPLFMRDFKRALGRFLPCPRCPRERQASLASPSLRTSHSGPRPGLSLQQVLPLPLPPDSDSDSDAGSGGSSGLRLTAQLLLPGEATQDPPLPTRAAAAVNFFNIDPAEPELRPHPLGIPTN
From the text: Receptor proteins were filtered and washed, the filters were then counted to determine [3H]LSD specifically bound. […] Biochemical assay results are presented as the percent inhibition of specific binding in Table 6.

[7] = 0.1 nM [125I]Aminopotentidine, read-out: Histamine Binding H2, percent inhibition of specific binding
[8] = 1 μM compound, 0.1 nM [125I]Aminopotentidine, read-out: Histamine Binding H2, percent inhibition of specific binding
[9] = percent inhibition of specific binding, screened at 1 μM, read-out: Inhibition of ligand binding, Hist. H2

| Structure (SMILES) | inhibition at 0.1 µM [1, 7] [%] | inhibition at 0.3 µM [1, 7] [%] | inhibition at 1 µM [1, 8] [%] | inhibition at 1 µM [1, 9] [%] | Inhibition of ligand binding, Ser. 5-HT2C [2] [%] | Inhibition of ligand binding, Adren. alpha2A [3] [%] | Inhibition of ligand binding, Dop. D2L [4] [%] | Inhibition of ligand binding, Ser. 5-HT2A [5] [%] | Inhibition of ligand binding, Ser. 5-HT6 [6] [%] | inhibition at 0.001 µM ([5]; read-out: Inhibition of ligand binding, Ser. 5-HT2A) [%] |
| --- | --- | --- | --- | --- | --- | --- | --- | --- | --- | --- |
| Cc1ccc2c(c1)c1c(n2CCc2ccccc2)CCN(C)C1 [Compound 20, 2,3,4,5-tetrahydro-2,8-dimethyl-5-phenethyl-1H-pyrido[4,3-b]indole] | 33 | 51 | 72 | 87 | 98 | 98 | 87 | 98 | – | – |
| Cc1ccc(CCn2c3c(c4cc(C)ccc42)CN(C)CC3)cc1 [Compound 25, 2,3,4,5-tetrahydro-2,8-dimethyl-5-(4-methylphenethyl)-1H-pyrido[4,3-b]indole] | 54 | 75 | 96 | 96 | 99 | 99 | 94 | 93 | 103 | – |
| COc1ccc(CCn2c3c(c4cc(C)ccc42)CN(C)CC3)cc1 [Compound 247] | – | – | 97 | 97 | 93 | 99 | 87 | – | 107 | 22 |
| Cc1ccc2c(c1)c1c(n2CCc2ccc(CO)nc2)CCN(C)C1 [Compound 267] | – | – | – | 42 | 76 | 49 | 21 | 73 | 69 | – |
| CCOC(=O)c1ccc(CCn2c3c(c4cc(C)ccc42)CN(C)CC3)cn1 [Compound 275, ethyl 5-(2-(1,2,3,4-tetrahydro-2,8-dimethylpyrido[4,3-b]indol-5-yl)ethyl)pyridine-2-carboxylate] | – | – | – | 20 | 31 | 29 | 4 | 39 | 56 | – |
| CN1CCc2c(c3cc(Cl)ccc3n2CC(=O)N2CCS(=O)(=O)CC2)C1 [Compound 295] | – | – | – | 10 | −19 | 26 | −7 | 0 | −1 | – |
| CN1CCc2c(c3cc(Cl)ccc3n2CC(=O)N2CC[S+]([O-])CC2)C1 [Compound 296, 2-(8-Chloro-2-methyl-1,2,3,4-tetrahydro-pyrido[4,3-b]indol-5-yl)-1-(1-oxo-1l4-thiomorpholin-4-yl)-ethanone] | – | – | – | -4 | 2 | 1 | 3 | 11 | 3 | – |
| CC(=O)N1CCN(C(=O)Cn2c3c(c4cc(Cl)ccc42)CN(C)CC3)CC1 [Compound 297, 1-(4-Acetyl-piperazin-1-yl)-2-(8-chloro-2-methyl-1,2,3,4-tetrahydro-pyrido[4,3-b]indol-5-yl)-ethanone] | – | – | – | 3 | 11 | −2 | 0 | – | 9 | – |
| CC1CCCCN1C(=O)Cn1c2c(c3cc(Cl)ccc31)CN(C)CC2 (stereo not shown) [Compound 321, 2-(8-chloro-1,2,3,4-tetrahydro-2-methylpyrido[4,3-b]indol-5-yl)-1-(2-methylpiperidin-1-yl)ethanone] | – | – | – | 25 | 61 | 12 | −1 | – | 15 | – |
| Cc1ccc2c(c1)c1c(n2CCc2cnc(C)cn2)CCN(C)C1 [Compound 322, 2,8-dimethyl-5-(2-(5-methylpyrazin-2-yl)ethyl)-2,3,4,5-tetrahydro-1H-pyrido[4,3-b]indole] | – | – | – | 20 | 69 | 44 | 5 | 64 | 75 | – |
| Cc1ccc2c(c1)c1c(n2CCc2cnc(C)nc2)CCN(C)C1 [Compound 323, 2,3,4,5-tetrahydro-2,8-dimethyl-5-(2-(2-methylpyrimidin-5-yl)ethyl)-1H-pyrido[4,3-b]indole] | – | – | – | 17 | 20 | 6 | 8 | 16 | 69 | – |
